Reference: US4065575A, “3-Aminomethyl derivatives of 4-chromanone” (Joullie International, priority 1975, dated 1977)
Entries after “also recorded” stand apart in the source; their conditions may differ. Where a name gives a salt, the structure may show the parent alone.

Legend:
[1] = Acute toxicity in mice (LD 50); type: in vivo; details: mouse, in vivo, mice, 15 days observation
Description: (§1) The study is carried out on batches of 5 Swiss female mice of the NMRI Han. strain. The products are administered either intravenously (into the caudal vein) in solution in a 9 g..permill. sodium chloride solution, or orally (probang) in suspension in a 10% solution of gum arabic.
(§2) The animals are observed for the 15 days following the administration of the products.
(§3) The LD 50 values are calculated by the method of Karber and Behrens (Arch. Exp. Pathol. Pharm. 177, 1935, page 379).

[2] = system: mice; experiment: Acute toxicity in mice (LD 50); type: in vivo; details: intravenous; in words
Description: as §1, §2, §3

[3] = system: isolated auricle of a rabbit; experiment: Peripheral vasomotoricity, isolated and perfused auricle of a rabbit; details: for activation at 0.0001 mg / activation at 0.001 mg / activation at 0.01 mg / activation at 0.1 mg: Oryctolagus cuniculus, read-out: Maximum variations in the flow rate; for activation at 0.0001 mg: dose 0.1 μg.; for activation at 0.001 mg: dose 1 μg.; for activation at 0.01 mg: dose 10 μg.; for activation at 0.1 mg: dose 100 μg.; for duration of the effects / of the action: at the highest doses; for peripheral vasodilatory action: in words
Description: The flow rate of the liquid issuing from the veins is recorded by electronic contact on a polygraph. The products to be studied are injected at increasing doses into the perfusion tube and their actions are compared to that of isoxsuprine used as the reference substance.
The results, collected in Table No. III, are expressed in the maximum percentage increase of the flow rate at the various doses used.

[4] = system: hypertensive effects of electrical stimulation, adrenaline and noradrenaline; experiment: α-Sympatholytic effects in amyeliated rats; type: in vivo; details: for % variation of the hypertensive effects obtained with adrenaline: adrenaline 1.25 to 2.5 μg./kg.; for % variation of the hypertensive effects obtained with noradrenaline: noradrenaline 1.25 to 2.5 μg./kg.
From the text: The α-sympatholytic effects of LJ 1052 and LJ 1053 are compared with those of isoxsuprine in amyeliated rats which have been prepared by a method derived from those of Shipley and Tilden (Proc. soc. Exp. Biol. Med. 1947, 64, 453-455) and of Gillespie and Muir (Br. J. Pharmac. Chemother. 1967, 30, 78-87).
The effects on the blood pressure of electrical stimulation of the thoracolumbar sympathic nerve (rectangular signals = voltage 20 to 40 volts; width 2 m. sec; frequency 10 secs.; duration 5 to 10 secs.) and of injections of adrenaline (1.25 to 2.5 μg./kg.) and of noradrenaline (1.25 to 2.5 μg./kg.) are determined before and after injection of the products tested.

[5] = Cardiovascular action in dogs; type: in vivo, male Beagle dogs
Description: Male Beagle dogs weighing 9 to 12 kg. were anaesthetised by intrasaphenous injection of a 2% solution of chloralose in physiological solution, at a dose of 100 mg./kg.
The anaesthesia is maintained by slow perfusion of 5% pentobarbital (1.2 ml./hour).
The animals are tracheotomised and placed under assisted respiration by means of a Bird respirator. Their oxygenation and their acid-base equilibrium are controlled by determination of the pH, the pCO2 and the pO2 on blood samples taken from a collateral of the brachial artery (pH/gas analyser for blood, IL model 213/227).
The different parameters are recorded on a polygraph.

[6] = dose 50 g./kg. (so in the source)
[7] = dose 100 g./kg. (so in the source)
[8] = 0.04 mg./kg. i.v. (1/1,000 LD 50)
[9] = 0.04 mg./kg. i.v. (1/1,000 LD 50), first or only phase
[10] = 0.04 mg./kg. i.v. (1/1,000 LD 50), then
[11] = 0.5 mg./kg. i.v. (1/50 LD 50), then
[12] = 0.6 mg./kg. i.v. (1/50 LD 50), first phase
[13] = 0.6 mg./kg. i.v. (1/50 LD 50), then

**Q.** For COCCCCNCC1COc2ccccc2C1=O (stereo not drawn) [LJ 1053, 3-(4-Methoxy-n-butylaminomethyl)-4-chromanone hydrochloride], which LD50 at 360 h ([1]; intravenous administration) is on record?
**A.** The LD50 at 360 h was 38 mg/kg.

**Q.** And the LD50 at 360 h ([1]; oral administration)?
**A.** Its LD50 at 360 h is 285 mg/kg.

**Q.** And the “intravenous LD 50 in mice (comparison of three products)” value [2]?
**A.** Its value is “practically identical”.

**Q.** What about the activation at 0.0001 mg [3] of the same compound?
**A.** Its activation at 0.0001 mg is 23%.

**Q.** What about the activation at 0.001 mg [3] of the same compound?
**A.** The activation at 0.001 mg was 92%.

**Q.** What about the activation at 0.01 mg [3] of the same compound?
**A.** Its activation at 0.01 mg is 133%.

**Q.** And the activation at 0.1 mg [3]?
**A.** The activation at 0.1 mg was 183%.

**Q.** What about the “duration of the effects / of the action” value [3] of the same compound?
**A.** The value was at least 30 min.

**Q.** What about the peripheral vasodilatory action ([3]; hydrochloride) of the same compound?
**A.** Its peripheral vasodilatory action is “great; also recorded: as active as isoxsuprine”.

**Q.** What about the “% variation of the hypertensive effects obtained with electrical stimulation” value [4, 6] of the same compound?
**A.** Its value is -11%.

**Q.** And the “% variation of the hypertensive effects obtained with adrenaline” value [4, 6]?
**A.** Its value is -18%.

**Q.** What about the “% variation of the hypertensive effects obtained with noradrenaline” value [4, 6] of the same compound?
**A.** Its value is -12%.

**Q.** And the “% variation of the hypertensive effects obtained with electrical stimulation” value [4, 7]?
**A.** The value was -55%.

**Q.** What about the “% variation of the hypertensive effects obtained with adrenaline” value [4, 7] of the same compound?
**A.** The value was -47%.

**Q.** And the “% variation of the hypertensive effects obtained with noradrenaline” value [4, 7]?
**A.** Its value is -41%.

**Q.** What about the “Diastolic AP, duration of action” value [5, 8] of the same compound?
**A.** Its value is 5 min.

**Q.** And the “Diastolic AP, maximum per cent variation” value [5, 8]?
**A.** The value was -60%.

**Q.** What about the “FF (mean flow rate of the femoral artery), maximum per cent variation” value [5, 8] of the same compound?
**A.** Its value is “+104%”.

**Q.** What about the “FF, duration of action” value [5, 8] of the same compound?
**A.** Its value is 3 min.

**Q.** And the “Hb (heart beat), maximum per cent variation” value [5, 8]?
**A.** Its value is “+23%”.

**Q.** What about the “Hb, duration of action” value [5, 8] of the same compound?
**A.** The value was over 30 min.

**Q.** What about the “LVP, duration of action” value [5, 8] of the same compound?
**A.** Its value is over 10 min.

**Q.** And the “Mean AP, duration of action” value [5, 8]?
**A.** Its value is 5 min.

**Q.** And the “Mean AP, maximum per cent variation” value [5, 8]?
**A.** The value was -45%.

**Q.** And the “Systolic AP, duration of action” value [5, 8]?
**A.** The value was 15 min.

**Q.** And the “Systolic AP, maximum per cent variation” value [5, 8]?
**A.** The value was “+23%”.

**Q.** And the “LVP (left ventricular pressure), maximum per cent variation” value [5, 9]?
**A.** Its value is -17%.

**Q.** What about the “dLVP/dt, maximum per cent variation” value [5, 9] of the same compound?
**A.** Its value is -12%.

**Q.** And the “dLVP/dt, duration of action, second phase ("then")” value [5, 10]?
**A.** Its value is over 10 min.

**Q.** And the “dLVP/dt, maximum per cent variation, second phase ("then")” value [5, 10]?
**A.** The value was “+25%”.

**Q.** Which LD50 at 360 h ([1]; intravenous administration) does the source give for CCCCNCC1COc2ccccc2C1=O (stereo not drawn) [LJ 1049, 3-(n-Butylaminomethyl)-4-chromanone hydrochloride] here?
**A.** The LD50 at 360 h was 24 mg/kg.

**Q.** And the LD50 at 360 h ([1]; oral administration)?
**A.** Its LD50 at 360 h is 262 mg/kg.

**Q.** What about the activation at 0.0001 mg [3] of the same compound?
**A.** The activation at 0.0001 mg was 36%.

**Q.** What about the activation at 0.001 mg [3] of the same compound?
**A.** Its activation at 0.001 mg is 36%.

**Q.** What about the activation at 0.01 mg [3] of the same compound?
**A.** Its activation at 0.01 mg is 115%.

**Q.** And the activation at 0.1 mg [3]?
**A.** Its activation at 0.1 mg is 138%.

**Q.** What about the “duration of the effects / of the action” value [3] of the same compound?
**A.** The value was at least 30 min.

**Q.** And the peripheral vasodilatory action [3]?
**A.** Its peripheral vasodilatory action is “great”.

**Q.** What about the “FF (mean flow rate of the femoral artery), maximum per cent variation” value ([5]; 0.5 mg./kg. i.v. (1/50 LD 50)) of the same compound?
**A.** The value was “+34%”.

**Q.** What about the “FF, duration of action” value ([5]; 0.5 mg./kg. i.v. (1/50 LD 50)) of the same compound?
**A.** Its value is 2 min.

**Q.** What about the “Hb (heart beat), maximum per cent variation” value ([5]; 0.5 mg./kg. i.v. (1/50 LD 50)) of the same compound?
**A.** Its value is “+21%”.

**Q.** What about the “Hb, duration of action” value ([5]; 0.5 mg./kg. i.v. (1/50 LD 50)) of the same compound?
**A.** The value was 40 min.

**Q.** What about the “LVP (left ventricular pressure), maximum per cent variation” value ([5]; 0.5 mg./kg. i.v. (1/50 LD 50)) of the same compound?
**A.** Its value is -19%.

**Q.** And the “LVP, duration of action” value ([5]; 0.5 mg./kg. i.v. (1/50 LD 50))?
**A.** Its value is 50 min.

**Q.** What about the “Mean AP, duration of action” value ([5]; 0.5 mg./kg. i.v. (1/50 LD 50)) of the same compound?
**A.** The value was 10 min.

**Q.** And the “Mean AP, maximum per cent variation” value ([5]; 0.5 mg./kg. i.v. (1/50 LD 50))?
**A.** The value was -15%.

**Q.** And the “dLVP/dt, maximum per cent variation” value ([5]; 0.5 mg./kg. i.v. (1/50 LD 50), first phase)?
**A.** Its value is -10%.

**Q.** What about the “dLVP/dt, duration of action, second phase ("then")” value [5, 11] of the same compound?
**A.** The value was 10 min.

**Q.** And the “dLVP/dt, maximum per cent variation, second phase ("then")” value [5, 11]?
**A.** The value was “+20%”.

**Q.** What does the source list for COCCCNCC1COc2ccccc2C1=O (stereo not drawn) [LJ 1051, 3-(3-Methoxy-n-propylaminomethyl)-4-chromanone hydrochloride]?
**A.** LD50 at 360 h ([1]; intravenous administration): 33 mg/kg; LD50 at 360 h ([1]; oral administration): 475 mg/kg; activation at 0.0001 mg [3]: 0%; activation at 0.001 mg [3]: 36%; activation at 0.01 mg [3]: 100%; duration of the effects / of the action [3]: ≥ 30 min; peripheral vasodilatory action [3]: great; LVP (left ventricular pressure), maximum per cent variation ([5]; 0.6 mg./kg. i.v. (1/50 LD 50)): -30%; LVP, duration of action ([5]; 0.6 mg./kg. i.v. (1/50 LD 50)): > 50 min; Mean AP, duration of action ([5]; 0.6 mg./kg. i.v. (1/50 LD 50)): > 50 min; Mean AP, maximum per cent variation ([5]; 0.6 mg./kg. i.v. (1/50 LD 50)): -21%; dLVP/dt, duration of action ([5]; 0.6 mg./kg. i.v. (1/50 LD 50)): > 50 min; dLVP/dt, maximum per cent variation ([5]; 0.6 mg./kg. i.v. (1/50 LD 50)): -60%; Hb (heart beat), maximum per cent variation [5, 12]: +20%; Hb, duration of action [5, 12]: 3 min; Hb, duration of action, second phase ("then") [5, 13]: 40 min; Hb, maximum per cent variation, second phase ("then") [5, 13]: -16%
